Counter-ions that a name gives are not always drawn.
Tests used:
Format in all cases: physicochemical
[1] = Thermogravimetric analysis (TGA), weight loss
Summary of the method: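 Mettler-Toledo TGA/DSC3, calibrated with indium, tin and zinc, balance checked with calcium oxalate. Sample in a hermetically sealed aluminium pan with pierced lid, heated under nitrogen from ambient to 350° C at 10° C/min. Weight loss reported against sample temperature.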

[2] = Final pH of the solubility sample solutions in aqueous media; details: for pH of the solubility sample, 0.9% Sodium Chloride: 0.9% sodium chloride (blank 5.8); for pH of the solubility sample, 5% Dextrose: 5% dextrose (blank 4.7); for pH of the solubility sample, FaSSGF: FaSSGF (blank 1.5, 1.6); for pH of the solubility sample, FaSSIF: FaSSIF (blank 6.5, 6.5); for pH of the solubility sample, FeSSIF: FeSSIF (blank 4.9, 5.0); for pH of the solubility sample, Water: water (blank 6.3)
Summary of the method: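 Undiluted HPLC assay of centrifuged (12000 rpm, 12–15 min) supernatants from aqueous 25HC3S salt suspensions. These suspensions were kept with excess solid and shaken one day at room temperature, 210 motions/min.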

[3] = Solid-state chemical stability of 25HC3S salts at 2-8° C., 60° C. and 80° C. (HPLC assay and degradation products); details: for % Impurities, Total / % Impurities, 25-HC: ND = Not Detected; for % Impurities, 25-HC: 25-Hydroxy-Cholesterol; for % Recovery: vs 2-8° C.
Summary of the method: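 Crystalline 25HC3S salts (~25 mg powder per vial) stored at 2-8° C. or 80° C., pulled at 3 and 6 weeks; some 3-week 2-8° C. vials moved to 60° C. for 1 week. Dissolved in 100% methanol (sonication/vortexing, centrifugation or dilution), then HPLC against 25HC3S sodium standards (0.75-1.25 mg/mL) for assay and degradants.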

[4] = Angle of repose of 25HC3S salts; details: for Flow Property per USP<1174> Powder Flow: classification by angle of repose
Summary of the method: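 About 2 g of salt powder was poured through a 7 mm inner-diameter tube into a 21.14 mm rubber O-ring, forming a cone of fixed diameter. Cone height was measured with calipers and the angle of repose was calculated from it. Flow was classified per USP<1174>.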

[5] = Appearance (color, clumping, flowability) of stored 25HC3S salts
[6] = Overall rank order of powder flowability (angle of repose and Hausner ratio); details: for Powder flowability, overall (in words): angle of repose and compressibility index/Hausner ratio combined; for Angle of Repose Rank Order / Hausner Ratio Rank Order / Overall Rank Order (Total Score): lower is better flow; for Overall Rank Order (Total Score): sum of both ranks
Source text: Table C5 was generated by adding the relative rank order of the 25HC3S salts for angle of repose and Hausner ratio results, and creating an Over All Rank Order of the salts powder flowability. The salts with the lower overall rank order score had better powder flowability.

[7] = listed as 25HC3S diethanolamine
[8] = 2-8° C., 3 wk, listed as 25HC3S diethanolamine
[9] = 2-8° C., 5 wk, listed as 25HC3S diethanolamine
[10] = 80° C., 3 wk, listed as 25HC3S diethanolamine
[11] = 80° C., 5 wk, listed as 25HC3S diethanolamine
[12] = 80° C., 5 wk, 50400 min, listed as 25HC3S diethanolamine
[13] = 2-8° C., 3 wk, listed as 25HC3S meglumine
[14] = 60° C., 1 wk, listed as 25HC3S meglumine
[15] = 80° C., 3 wk, listed as 25HC3S meglumine

For `CC(CCCC(C)(C)O)C1CCC2C3CC=C4CC(OS(=O)(=O)O)CCC4(C)C3CCC12C` (centres unmarked) [Salt #10], the “Weight loss by TGA up to 175° C. (in words)” value ([1]; up to 175° C.) was “Negligible weight loss”, the “pH of the solubility sample, 0.9% Sodium Chloride” value [2, 7] was 7.9 and the “pH of the solubility sample, 5% Dextrose” value [2, 7] was 7.2. The “pH of the solubility sample, FaSSGF” value [2] was 1.6, the “pH of the solubility sample, FaSSIF” value [2, 7] was 6.5 and the “pH of the solubility sample, FeSSIF” value [2, 7] was 4.9. For the same compound, the “pH of the solubility sample, Water” value [2, 7] was 8.2, the Assay ([3]; 2-8° C., 3 wk, 30240 min, listed as 25HC3S diethanolamine) was 100.2 % w/w and the “% Impurities, Total” value [3, 8] was 1.8%. The Assay ([3]; 2-8° C., 5 wk, 50400 min, listed as 25HC3S diethanolamine) was 107.0 % w/w, the “% Impurities, Total” value [3, 9] was 1.9% and the “Overall physical and chemical stability (in words)” value ([3]; 2-8° C., 60° C., 80° C.) was “physically and chemically stable”. The “Overall physical and chemical stability (in words)” value ([3]; 2-8° C., 60° C., 80° C., listed as diethanolamine) was “relatively stable”, the “% Impurities, 25-HC” value [3, 8] was 0.4% and the “% Impurities, 25-HC” value [3, 9] was 0.4%. The “% Impurities, 25-HC” value [3, 10] was 0.9%, the “% Impurities, 25-HC” value [3, 11] was 1.2% and the “Stressed stability at 80° C. (in words)” value ([3]; 80° C.) was “good, stressed stability”. The “% Recovery” value ([3]; 80° C., 3 wk, 30240 min, listed as 25HC3S diethanolamine, 30240 min) was 99.4%, the Assay ([3]; 80° C., 3 wk, 30240 min, listed as 25HC3S diethanolamine) was 99.6 % w/w and the “% Impurities, Total” value [3, 10] was 2.8%. For the same compound, the “Physical and chemical solid-state stability (comments)” value ([3]; 80° C., 5 weeks) was “Stable after 5 weeks at 80 °C physically and chemically”, the “% Recovery, 2-8° C./5 wk vs 80° C./5 wk” value [3, 12] was 97.7% and the Assay [3, 12] was 104.5 % w/w. The “% Impurities, Total” value [3, 11] was 3.5%, the “Stability after 5 weeks at 80° C. (in words)” value ([3]; solid state, 80° C., 5 weeks) was “stable” and the “Flow Property per USP<1174> Powder Flow” value [4, 7] was “Passable - may hang up”. For the same compound, the “Angle of Repose” value [4, 7] was 49.2 degrees, the “Angle of Repose, Rounded Whole Number” value [4, 7] was 49 degrees and the Appearance [5, 8] was “White, free flowing powder with clumping”. For the same compound, the Appearance ([5]; 2-8° C., 5 wk) was “White, free flowing powder with clumping”, the Appearance [5, 10] was “White, free flowing powder with clumping” and the Appearance ([5]; 80° C., 5 wk) was “White, free flowing powder with clumping”. The “Powder flowability, overall (in words)” value ([6]; listed as diethanolamine) was “poorer flowability”, the “Angle of Repose Rank Order” value [6, 7] was 14 and the “Hausner Ratio Rank Order” value [6, 7] was 9. The “Overall Rank Order (Total Score)” value [6, 7] was 23.

For `CC(CCCC(C)(C)O)C1CCC2C3CC=C4CC(OS(=O)(=O)O)CCC4(C)C3CCC12C` (centres unmarked) [Salt #7], the “Loss of moisture by TGA, starting with ambient” value ([1]; starting with ambient) was “about 3.2%”, the “pH of the solubility sample, 0.9% Sodium Chloride” value ([2]; listed as 25HC3S meglumine) was 7.2 and the “pH of the solubility sample, 5% Dextrose” value ([2]; listed as 25HC3S meglumine) was 7.2. For the same compound, the “pH of the solubility sample, FaSSGF” value [2] was 1.6, the “pH of the solubility sample, FaSSIF” value ([2]; listed as 25HC3S meglumine) was 6.5 and the “pH of the solubility sample, FeSSIF” value [2] was 5.0. The “pH of the solubility sample, Water” value ([2]; listed as 25HC3S meglumine) was 8.5, the Assay ([3]; 2-8° C., 3 wk, 30240 min, listed as 25HC3S meglumine) was 98.3 % w/w and the “% Impurities, Total” value [3, 13] was 0.9%. The “% Impurities, 25-HC” value [3, 14] was 0.4%, the “Physical and chemical solid-state stability (comments)” value ([3]; 60° C., 1 week, listed as 25HC3S Meglumine) was “Stable after 1 week at 60 °C” and the Assay ([3]; 60° C., 1 wk (after 3 weeks at 2-8° C.), 10080 min, listed as 25HC3S meglumine, 10080 min) was 104.6 % w/w. The “% Recovery of 2-8° C./3 wk vs 60° C./1 wk” value ([3]; 60° C., 1 wk, 10080 min, listed as 25HC3S meglumine) was 106.4%, the “% Impurities, Total” value [3, 14] was 1.7% and the “Physical and chemical solid-state stability (comments)” value ([3]; 80° C., 3 weeks, listed as 25HC3S Meglumine) was “totally decomposed after 3”. The “% Recovery” value ([3]; 80° C., 3 wk, 30240 min, listed as 25HC3S meglumine, 30240 min) was 0.0%, the Assay ([3]; 80° C., 3 wk, 30240 min, listed as 25HC3S meglumine) was 0.0 % w/w and the “% Impurities, Total” value [3, 15] was 100.3%. The “Stability after 1 week at 60° C. (in words)” value ([3]; solid state, 60° C., 1 week (after 3 weeks at 2-8° C.)) was “stable”, the “Stability after 3 weeks at 80° C. (in words)” value ([3]; solid state, 80° C., 3 weeks) was “totally decomposed” and the “Flow Property per USP<1174> Powder Flow” value ([4]; listed as 25HC3S meglumine) was “Fair - aid not needed”. The “Angle of Repose” value ([4]; listed as 25HC3S meglumine) was 37.3 degrees, the “Angle of Repose, Rounded Whole Number” value ([4]; listed as 25HC3S meglumine) was 37 degrees and the Appearance [5, 13] was “White, free flowing powder, no clumping”. For the same compound, the Appearance ([5]; 60° C., 1 wk (after 3 weeks at 2-8° C.), listed as 25HC3S meglumine) was “White, free flowing powder, no clumping”, the “Appearance after 3 weeks at 80° C.” value ([5]; 80° C., 3 weeks) was “completely burned” and the Appearance [5, 15] was “Light brown, partially melted material”. The “Powder flowability, overall (in words)” value ([6]; listed as meglumine) was “next group”, the “Angle of Repose Rank Order” value ([6]; listed as 25HC3S meglumine) was 5 and the “Hausner Ratio Rank Order” value ([6]; listed as 25HC3S meglumine) was 12. The “Overall Rank Order (Total Score)” value ([6]; listed as 25HC3S meglumine) was 17.

— patent publication US20260317367A1, “SALTS INCLUDING CRYSTALLINE SALTS OF 25-HYDROXY-CHOLEST-5-EN-3-SULFATE AND METHODS FOR PREPARING SAME” (Durect Corporation, priority 2022, published 2026)
